The values below come from patent publication US20110172204A1, “COMPOUNDS AND THEIR USE” (TAKEDA PHARMACEUTICAL COMPANY LIMITED, priority 2010, published 2011).

For test [1], the target named is T1, H3 receptor (Rattus norvegicus, UniProt Q9QYN8).
T1 construct: host or cells: living rat (endogenous receptor)
The note with it: cited from earlier work.

Test [2] has as its target rat H3 receptors (Rattus norvegicus, UniProt Q9QYN8). The note with it: cited from earlier work.
Test [3] has as its target T2, human H3 receptor (Homo sapiens, UniProt Q9Y5N1). Particulars: cited from earlier work.
For test [4], the target named is T1, H3 receptor. The note with it: cited from earlier work. The source holds these as a separate data set.
Test [5] addresses T2, human H3 receptor. As to the kind of experiment: In vitro H3 binding assay (3H-NαMH competition binding). Particulars: membranes of CHO-K1 cells expressing human H3; inhibition of specific binding of 2 nM 3H-NαMH; read-out: hH3 binding IC50. On the set-up: expressed in transfected cells. On the procedure:
The ability of compounds to bind to the H3 receptor was determined by measuring the reduction in tritiated N-α-methyl-histamine (^3H-NαMH) binding in a competition binding assay. Changes in the levels of bound radio-label were monitored by scintillation counting with a Trilux Microbeta (Perkin Elmer).
Membranes were prepared from CHO-K1 cells stably expressing human H3 receptor; routinely grown as monolayers in Ham's F12 medium (Invitrogen) supplemented with 10% Foetal Clone III (Hyclone), 500 μg/ml G418 (Invitrogen), 5 μg/ml blasticidine S (Invivogen) and 50 μg/ml Gentamicin (Sigma) in 5% CO2 at 37° C. Cells were grown to 80-95% confluency, rinsed once with 1×PBS (Invitrogen) and detached by incubating with 1×PBS containing 0.02% EDTA (Sigma) for 10 minutes at room temperature. Cells were collected by centrifugation at 900×g, 4° C. for 10 minutes. Cells were rinsed once with 1×PBS and re-suspended in ice cold homogenisation buffer (50 mM Tris-HCl (pH 7.4), 2.5 mM EDTA, 5 mM MgCl2, 200 mM Sucrose) at 1×10^7 cells/ml and kept on ice. Cells were homogenised on ice and debris removed by centrifugation at 500×g, 4° C. for 5 minutes. The resulting supernatant was centrifuged at 75,600×g, 4° C. for 60 minutes. Membranes were suspended in homogenisation buffer, protein concentration was determined (BCA Protein Assay kit (Pierce)), diluted to 2.2 mg/ml, dispensed into 1 ml aliquots and stored at −80° C.
Membranes were thawed on ice, sonicated with 4 cycles of 20 pulses (50% amplitude, 0.5 pulse) (UP200S Hielscher) on ice, diluted in assay buffer (50 mM Tris-HCl (pH7.4), 5 mM MgCl2) to 62.5 μg/ml. Compound was serially diluted in DMSO before being diluted 1:10 with assay buffer. 5 μg of membrane in 80 μl of assay buffer was added per well of a 96 well polystyrene plate (Corning). 10 μl of compound was added per well. The assay was initiated by the addition of 10 μl of 20 nM ^3H-NαMH per well and incubated for one hour at room temperature with shaking Total binding was determined in the presence of 1% DMSO and non-specific binding was determined by the inclusion of 1 μM R-α-methyl-histamine (RαMH). Incubations were then filtered through filtermat A (Perkin Elmer) and washed three times with assay buffer. Filtermats were dried at 42° C. for two hours, scintillant added and the level of bound radioactivity determined.
IC50 values for compounds were determined from seven point log scale dose-response studies and represent the concentration of compound required to inhibit 50% of the specific binding of 2 nM ^3H-NαMH (difference between total and non-specific binding). Curves were generated using the average of duplicate wells for each data point and analyzed using nonlinear regression of sigmoidal dose response (variable slope).

Test [6] concerns the target T2, human H3 receptor. As to the kind of experiment: In vitro H3 functional assay (cAMP response element driven luciferase reporter). It is filed as cell-based. On the set-up: expressed in transfected cells. The note with it: CHO(dhfr+)-cre-luc cells expressing human H3; forskolin 1 μM, RαMH 10 nM; read-out: hH3 functional IC50. On the procedure:
The functional activity of compounds at the H3 receptor was determined by measuring changes in the level of intracellular cAMP using a cAMP response element driven luciferase reporter assay. The changes in luciferase expression were monitored by a luminescence plate reader, Analyst HT (MDS Analytical). Increases in intracellular cAMP were readily detected upon activation of protein kinase A by forskolin (Sigma) and suppression of this response observed with the application of the H3 receptor agonist RαMH (Sigma).
CHO(dhfr^+)-cre-luc cells stably expressing human H3 receptor were routinely grown as monolayers in Minimal Essential Medium α (MEMα) (Invitrogen) supplemented with 10% dialysed FBS (Hyclone), in 5% CO2 at 37° C. 48 hours prior to assay, cells were seeded in clear-base white walled 384-well plates (Corning) at a density of 5000 cells/well. On the day of assay, growth media was removed and replaced with 15 μl of assay buffer (MEMα, 5 mg/ml fatty acid free BSA (Sigma)) per well. Cells were then incubated for 30 minutes at 37° C., 5% CO2. Compound was serially diluted in DMSO before being diluted 1:10 with assay buffer. 2.5 μl of compound diluted in assay buffer was added and cells incubated for 5 minutes at 37° C., 5% CO2. 2.5 μl of each reagent was then added in the following order: RαMH (10 nM), isobutylmethylxanthine (1-methyl-3-(2-methylpropyl)-7H-purine-2,6-dione; IBMX) (500 μM) (Sigma) and forskolin (1 μM). Cells were then incubated for 90 minutes at 37° C., 5% CO2, followed by 30 minutes at room temperature. At the end of incubation 25 μl of Steadylite reagent (Perkin Elmer) was added, plates were sealed and placed on a shaker for 5 minutes. The level of light output to determine the level of luciferase expression was then measured.
IC50 values for compounds were determined from ten point half log scale dose-response studies and represent the concentration of compound required to […] 50% inhibition of forskolin stimulated cells in the presence of RαMH alone. Curves were generated using the average of duplicate wells for each data point and analyzed using nonlinear regression of four parameter dose response.

Test [7] concerns H3 receptor. Particulars: a number of acute pain models; cited from earlier work.
Test [8] has as its target T3, H3 receptor (Mus musculus, UniProt P58406).
T3 construct: host or cells: living mouse (endogenous receptor)
Particulars: mice; cited from earlier work.

Test [9] concerns the target T3, H3 receptor. The note with it: lean and obese mice; cited from earlier work.

T1 sequence (Q9QYN8 whole entry): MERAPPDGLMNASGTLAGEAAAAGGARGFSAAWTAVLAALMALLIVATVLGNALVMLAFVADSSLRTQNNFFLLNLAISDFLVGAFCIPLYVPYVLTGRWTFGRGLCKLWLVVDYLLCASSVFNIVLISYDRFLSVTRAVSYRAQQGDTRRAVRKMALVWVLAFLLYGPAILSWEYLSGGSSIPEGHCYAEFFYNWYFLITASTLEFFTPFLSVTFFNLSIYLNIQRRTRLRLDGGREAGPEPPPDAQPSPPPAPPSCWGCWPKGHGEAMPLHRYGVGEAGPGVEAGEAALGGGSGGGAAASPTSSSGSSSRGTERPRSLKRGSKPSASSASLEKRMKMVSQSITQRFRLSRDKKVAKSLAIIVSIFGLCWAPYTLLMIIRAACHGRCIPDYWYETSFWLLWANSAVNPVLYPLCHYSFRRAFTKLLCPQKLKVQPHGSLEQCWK
T2 sequence (Q9Y5N1 whole entry): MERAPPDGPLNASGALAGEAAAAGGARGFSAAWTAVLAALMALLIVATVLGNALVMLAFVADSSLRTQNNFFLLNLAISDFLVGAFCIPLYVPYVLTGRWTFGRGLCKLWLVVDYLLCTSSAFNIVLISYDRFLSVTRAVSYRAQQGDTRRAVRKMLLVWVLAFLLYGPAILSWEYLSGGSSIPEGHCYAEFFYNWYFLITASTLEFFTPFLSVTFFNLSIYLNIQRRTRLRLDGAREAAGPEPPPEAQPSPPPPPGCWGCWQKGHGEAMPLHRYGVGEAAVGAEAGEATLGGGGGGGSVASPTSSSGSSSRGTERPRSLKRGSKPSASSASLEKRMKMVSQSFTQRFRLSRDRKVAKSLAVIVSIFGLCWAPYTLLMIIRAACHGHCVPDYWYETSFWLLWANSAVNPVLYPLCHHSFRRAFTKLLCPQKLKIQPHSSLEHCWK
rat H3 receptors, sequence (Q9QYN8 whole entry): as the sequence (Q9QYN8 whole entry) above
T3 sequence (P58406 whole entry): as the sequence (Q9QYN8 whole entry) above, with T15A, A286T, A290G, R387H, I389V counted along it

For `CC(C)N1CCCN(C(=O)C2CCN(c3ccc(C(F)(F)F)nc3)CC2)CC1` [GSK334429], in [1], the tactile allodynia result is “reduced tactile allodynia”. Also, the “affinity for rat H3 receptors” value in test [2] was “high affinity”. For the same compound, the “affinity for human H3 receptors” value in test [3] is on record as “high affinity”.
As for `C[C@H]1CC[C@H](C)N1CCCOc1ccc(-c2ccc(C(=O)N3CCOCC3)cc2)cc1` [Example A-349821], the cognition-enhancing effects result in [4] is listed as “cognition-enhancing effects”.
One may read the IC50 as the concentration that gives 50% inhibition. For the compound `COC1CN(c2ncc(C(=O)NCc3ccc4c(c3)CCN(C3CCC3)CC4)cn2)C1` [Example 3, N-((3-cyclobutyl-2,3,4,5-tetrahydro-1H-3-benzazepin-7-yl)methyl)-2-(3-methoxyazetidin-1-yl)pyrimidine-5-carboxamide], the concentration for half-maximal inhibition (IC50) amounted to 3 nM in test [5] and 2 nM in [6].
The matching figures for `O=C(NCc1ccc2c(c1)CCN(C1CCC1)CC2)c1cnc(N2CCC(F)(F)C2)nc1` [Example 4, N-[(3-cyclobutyl-2,3,4,5-tetrahydro-1H-3-benzazepin-7-yl)methyl]-2-(3,3-difluoropyrrolidin-1-yl)pyrimidine-5-carboxamide]: 2 nM and 3 nM.
Consider `CO[C@H]1CCN(c2ncc(C(=O)NCc3ccc4c(c3)CCN(C3CCC3)CC4)cn2)C1` [Example 2, N-[(3-cyclobutyl-2,3,4,5-tetrahydro-1H-3-benzazepin-7-yl)methyl]-2-[(3S)-3-methoxypyrrolidin-1-yl]pyrimidine-5-carboxamide], for which the IC50 in [5] and in test [6] was 2 nM in each case.
With `S=C(NC1CCCCC1)N1CCC(c2cnc[nH]2)CC1` [thioperamide], in test [7], the antinociceptive effect result is “antinociceptive effect”.
Consider `CO[C@H]1CCN(c2ncc(C(=O)N(C)Cc3ccc4c(c3)CCN(C3CCC3)CC4)cn2)C1` [Example 6, N-[(3-cyclobutyl-2,3,4,5-tetrahydro-1H-3-benzazepin-7-yl)methyl]-2-[(3S)-3-methoxypyrrolidin-1-yl]-N-methylpyrimidine-5-carboxamide], for which the IC50 in test [5] was 4 nM; in [6], 2 nM.
As to `CO[C@@H](C)CN(C)c1ncc(C(=O)NCc2ccc3c(c2)CCN(C2CCC2)CC3)cn1` [Example 8, N-[(3-cyclobutyl-2,3,4,5-tetrahydro-1H-3-benzazepin-7-yl)methyl]-2-{[(2S)-2-methoxypropyl](methyl)amino}pyrimidine-5-carboxamide], the IC50 in test [5] was determined as 0.73 nM; in [6], 2 nM.
With `NC(=NCc1ccc(Cl)cc1)SCCCc1cnc[nH]1` [clobenpropit], in test [8], the “histamine release in the hypothalamus” value was “increases histamine release”. For the same compound, the energy intake result in test [9] is “reducing energy intake”.
For `CO[C@H](C)CN(C)c1ncc(C(=O)NCc2ccc3c(c2)CCN(C2CCC2)CC3)cn1` [Example 9, N-[(3-cyclobutyl-2,3,4,5-tetrahydro-1H-3-benzazepin-7-yl)methyl]-2-{[(2R)-2-methoxypropyl](methyl)amino}pyrimidine-5-carboxamide], the concentration for half-maximal inhibition (IC50) in test [5] turned out to be 4 nM; in test [6], 8 nM.
The matching figures for `O=C(NCc1ccc2c(c1)CCN(C1CCC1)CC2)c1cnc(N2CCC(F)(F)CC2)nc1` [Example 5, N-((3-cyclobutyl-2,3,4,5-tetrahydro-1H-3-benzazepin-7-yl)methyl)-2-(4,4-difluoropiperidin-1-yl)pyrimidine-5-carboxamide]: 1 nM and 3 nM.
On to `CNC(=O)c1cnc(Oc2ccc3c(c2)CCN(C2CCC2)CC3)cn1` [GSK207040], for which, in test [1], the tactile allodynia result was “reduced tactile allodynia”. Also, the “affinity for rat H3 receptors” value in test [2] is “high affinity”.
For `CO[C@@H]1CCN(c2ncc(C(=O)NCc3ccc4c(c3)CCN(C3CCC3)CC4)cn2)C1` [Example 1, N-[(3-cyclobutyl-2,3,4,5-tetrahydro-1H-3-benzazepin-7-yl)methyl]-2-[(3R)-3-methoxypyrrolidin-1-yl]pyrimidine-5-carboxamide], the results for the half-inhibitory concentration (IC50) in test [5] and in [6] were 0.5 nM and 1 nM, respectively.
For `CO[C@@H]1CCN(c2ncc(C(=O)N(C)Cc3ccc4c(c3)CCN(C3CCC3)CC4)cn2)C1` [Example 7, N-[(3-cyclobutyl-2,3,4,5-tetrahydro-1H-3-benzazepin-7-yl)methyl]-2-[(3R)-3-methoxypyrrolidin-1-yl]-N-methylpyrimidine-5-carboxamide] the same measures were 5 nM and 6 nM.
